Measurements reported in patent US8715155B2, “Embryo development and survival” (University of Tennessee Research Foundation, priority 2005, dated 2014).

Key:
[1] = tested on: developmentally challenged bovine oocytes; experiment: Maturation of developmentally challenged oocytes with a PGF2α antagonist, then fertilization; type: cell-based
Experimental: In a second study, bovine oocytes were obtained from ovaries of slaughtered cows. Oocytes that were developmentally challenged (development of oocyte to blastocyst less than 20%) were included in the study. The oocytes were matured for 24 hours in a standard maturation medium that either contained the PGF2α antagonist AL-8810 (treatment group) or that lacked the PGF2α antagonist (control group) and were then fertilized. Oocytes were observed on day 3 for the presence of cleavage and on day 9 for the presence of blastocyst development. The percentage of oocytes in that underwent cleavage and that developed into blastocysts was determined.

[2] = tested on: embryos placed in recipient animals; experiment: Pre-treatment of embryos in recovery and/or freezing/transfer media before embryo transfer; type: in vivo, cattle
Experimental: Approximately 100 embryo recoveries are performed on day 7 after estrus in beef and dairy cows (lactating and dry). Cows are superovulated (Folltropin) and embryos recovered, evaluated, and frozen (1.5 M Ethylene Glycol; EG) as previously reported (Schrick et al., Biol. Reprod. 49:617-621 (1993)). Half of the embryo recoveries occur utilizing 1 L of each of the following alternative media preparations: 1) Embryo recovery (flush) media (CON, n=50 recoveries; Dulbecco's PBS+1% FCS; GibcoBRL, Cat.#21300-025; Grand Island, N.Y.) or 2) Embryo recovery (flush) media+AL-8810 (TRT, n=50 recoveries; 430 nM of AL-8810).
Following filtering, embryo dishes are searched, embryos removed (placed in Vigro), and evaluated for quality and development (IETS guidelines). […]
Over a two year period, recipient animals (dairy and beef cows and heifers; n=500) have estrus synchronized utilizing GnRH/CIDR/Estrumate protocol consisting of administration of 100 ug GnRH (Cysterolin; Merial) and CIDR (intravaginal progesterone releasing device; Pfizer) insertion on day 0, CIDR removal and injection of 2 mL Estrumate (Schering-Plough Animal Health) on day 7, and estrous detection (twice daily) from days 8 through 12. […] Embryos used for ET are thawed (10 sec air thaw; 30 sec in 25° C. water bath), straw labeling (embryo ID) information recorded, and recipient ID collected. […]

[3] = tested on: Pre-compacted 16- to 32-cell stage bovine embryos; conditions: 1000 nM AL-8810 + 1 ng/ml PGF, 48 h culture, assessed day 8
Experimental: Pre-compacted 16- to 32-cell stage bovine embryos (day 4 post fertilization) are washed in KSOM-PVA and divided into four groups, each of which is cultured for 48 hours in KSOM-PVA containing one of the following: (1) 1000 nM AL-8810, n=95 (AL-8810 group); (2) 1 ng/ml PGF, n=91 (PGF group); (3) 1000 nM AL-8810+1 ng/ml PGF, n=90 (AL-8810+PGF group); or (4) KSOM-PVA without AL-8810 or PGF, n=84 (Control group).
Following the 48 hour culture, embryos from each group are placed in HEPES-TALP and embryonic development is assessed by a technician who is uninformed of the treatments of the embryos in each group. Embryos from each treatment group are washed in KSOM-PVA and transferred to a 4-well plate with KSOM-PVA for further culture until day 8 post fertilization, when embryonic development is again assessed.

[4] = tested on: Pre-compacted 16- to 32-cell stage bovine embryos; experiment: Dose response study of AL-8810 on embryo development; type: cell-based; conditions: 96 h
Experimental: Incubation conditions are 5.5% CO2, 7% O2, and 87.5% N2 at 38.5° C. The four groups are as follows: (1) KSOM-PVA+AL-8810 at 1000 nM, n=93 (High AL-8810 group); (2) KSOM-PVA+AL-8810 at 500 nM, n=95 (Medium AL-8810 group); (3) KSOM-PVA+AL-8810 at 250 nM, n=93 (Low AL-8810 group); and (4) KSOM-PVA with an equivalent volume of DMSO (dimethylsulfoxide) as used for the first three groups, n=95 (Control group).

[5] = tested on: bovine cumulus-oocyte-complexes; experiment: Maturation of heat-stressed cumulus-oocyte-complexes with a PGF2α antagonist; type: cell-based; conditions: COC matured at 41.0° C. for first 12 h, AL-8810 at 250, 400 or 1000 nM; FIG. 1
Experimental: In a first study, bovine cumulus-oocyte-complexes were divided into three groups. Each of the three groups were matured for 24 hours under heat-stress conditions at 41.0° C. for 12 hours, followed by 38.5° C. for the remaining 12 hours. A first group, referred to as the development control group, was matured utilizing a standard maturation medium. A second group, referred to as the diluent control group, was matured under the same conditions utilizing the same standard maturation medium to which was added a diluent DMSO (dimethyl sulfoxide). A third group, referred to as the treatment group, was matured under the same conditions utilizing the same standard maturation medium to which was added the PGF2α antagonist AL-8810 at a concentration of 250, 400, or 1000 nM. To prepare the diluent control, DMSO was added to the OMM to yield the same concentration as would be contained in the PGF2α antagonist dose being tested (0.0025, 0.004 and 0.01% v/v final concentration for the 250, 400 and 1000 nM doses, respectively). The generalized linear mixed models (GLIMMIX) procedure of SAS version 9.1 (SAS Institute; Cary, N.C.; 2003) was used to perform analyses. Data are presented as least square means±the standard error of the mean. […]

[6] = oocytes matured 24 h with AL-8810, of those that cleaved

Structure (SMILES): O=C(O)CCC/C=C\CC1C(O)CC(F)C1/C=C/C(O)C1Cc2ccccc2C1 (stereo not drawn) [AL-8810, 11β-fluoro-15-epi-15-indanyl-tetranor PGF2α]
- deleterious or toxic effect on oocytes or developing embryos (stage and development of blastocysts) ([1]; oocytes matured 24 h with AL-8810): does not exert a deleterious or toxic effect
- Cleaved (%) ([1]; oocytes matured 24 h with AL-8810, observed day 3): 60.4%
- Blastocyst/PZ (%) ([1]; oocytes matured 24 h with AL-8810, observed day 9): 17.7%
- 2-cell (%) [1, 6]: 7.2%
- 4-cell (%) [1, 6]: 15.2%
- 8 to 16-cell (%) [1, 6]: 76.7%
- pregnancy rates ([2]; AL-8810 (430 nM in flush media) in embryo recovery and/or freezing/transfer media): increases pregnancy rates
- abnormalities in calves resulting from the pregnancies ([2]; embryos pre-treated with AL-8810 in media): No abnormalities are observed in the calves
- embryonic development in the presence of PGF [3]: decreases the negative effects of PGF on embryonic development
- early embryonic development of pre-compacted embryos ([4]; AL-8810 at 250, 500 and 1000 nM, vs control group): does not decrease or increase early embryonic development
- embryonic development ([4]; High AL-8810 group (1000 nM), vs 49.9+/-3.9% control, p<0.05): 60.3%+/−3.9
- blastocyst development after heat stress [5]: the effect of heat stress to reduce blastocyst development was no longer observed
